This is an account of results in US8907110B2, “Benzodioxepin-3-one compounds as dyes or as fluorescent emitters” (Merck Patent GmbH, priority 2011, dated 2014).

Common to all, as to assay type: physicochemical
Series [1] can be described thus: Thermal stability by thermographic method (TGA). Conditions: for Temperature at which 98% of the weight was still present: TGA, RT to 800° C., heating rate 10 K/min. The method, then:
The thermal stability is determined with the aid of the thermographic method (instrument TGA Q5000 V3.10 Build 258, temperature range RT to 800° C., heating rate 10 K/min).

Series [2] in a line: Absorption strength (absorption spectrum in ethanol). Conditions: for λmax: absorption maximum, dilute solution; for λmax / Half-value width / spectral range covered compared with curcumin and beta-carotene / intense absorption up to: in ethanol; for E1 % value: extinction at the absorption maximum extrapolated to a concentration of 1 g/100 ml, ethanol; for Half-value width: half-value width of the absorption band. As to the method: The measure used for the absorption strength is the so-called E1% value, and the half-value width of the absorption band in relation to the absorption maximum λmax indicated. The E1% value indicates the extinction at the absorption maximum extrapolated to a concentration of 1 g/100 ml. To this end, an absorption spectrum of the substance in ethanol is recorded in dilute solution. The values are compared with the reference spectra of curcumin and beta-carotene.

A short description of series [3]: Fluorescence measurements in ethanol. Conditions: 0.00804-0.00820 mg/ml, cell thickness 1 cm. As to the method:
The substance concentrations in ethanol indicated in the table are measured using an Aminco Bowman 2 fluorescence spectrometer (cell thickness 1 cm; excitation 220-600 nm; emission 220-800 nm; spectral gap width (excitation) 4 nm, (emission) 8 nm; recording speed 10 nm/min; step width (excitation) 5 nm, (emission) 4 nm.

Series [4] is described as follows: Solubility determination in phenethyl benzoate (X-Tend 226). The method, then: The solubility determination was carried out in phenethyl benzoate (X-Tend 226): […]

Consider `COc1cc(/C=C/C(=O)CC(=O)/C=C/c2ccc(O)c(OC)c2)ccc1O` [Curcumin, curcumin, reference compound], for which, in series [1], the “thermal stability (in words)” value is “not thermally stable” and the “Temperature at which 98% of the weight was still present” value was determined as 223 °C. In series [2], the λmax came out at 426 nm, the E1 % value is listed as 1507 and the Half-value width result is listed as “approx. 78 nm”.
On to `COc1ccc(/C=C2\Oc3ccc(C)cc3O/C(=C\c3ccc(OC)c(OC)c3)C2=O)cc1OC` [Example 3, 2,4-bis[1-(3,4-dimethoxyphenyl)-meth-(Z)-ylidene]-7-methylbenzo[b]-1,4-dioxepin-3-one], for which, in series [3], the Emission was determined as 322 nm and the Excitation was determined as 230 nm. Besides, the “Solubility in X-Tend 226” value in series [4] was found to be 4.5%. Moreover, in series [1], the “thermal stability (in words)” value is on record as “excellent” and the “Temperature at which 98% of the weight was still present” value was 286 °C. In addition, in series [2], the λmax was 369 nm; the E1 % value is 515; the Half-value width entry is recorded as “approx. 100 nm”; the “spectral range covered compared with curcumin and beta-carotene” value is “significantly greater spectral range”.
As to `CC1=C(/C=C/C(C)=C/C=C/C(C)=C/C=C/C=C(C)/C=C/C=C(C)/C=C/C2=C(C)CCCC2(C)C)C(C)(C)CCC1` [Beta-carotene, beta-carotene, reference compound], the “Temperature at which 98% of the weight was still present” value in series [1] is 84 °C. Besides, in series [2], the λmax is reported as 453 nm, the E1 % value was 408 and the Half-value width result is recorded as “approx. 88 nm”.
In series [3], `CCCCN(CCCC)c1ccc(/C=C2\Oc3ccc(C)cc3O/C(=C\c3ccc(N(CCCC)CCCC)cc3)C2=O)cc1` [Example 8, 7-methyl-2,4-bis[1-(4-dibutylaminophenyl)meth-(Z)-ylidene]benzo[b]-1,4-dioxepin-3-one] returned an Emission of 320 nm and an Excitation of 260 nm. Besides, the “Solubility in X-Tend 226” value in series [4] came out at 5.0%. In series [1], the “thermal stability (in words)” value is “excellent” and the “Temperature at which 98% of the weight was still present” value turned out to be 250 °C. For the same compound, in series [2], the λmax is reported as 484 nm, the E1 % value was 571, the Half-value width result is “approx. 122 nm” and the “intense absorption up to” value is listed as “up to 609 nm”. Besides, the “spectral range covered compared with curcumin and beta-carotene” value in series [2] is given as “significantly greater spectral range”.
`COc1ccc(/C=C2\Oc3ccc(C)cc3O/C(=C\c3ccc(OC)cc3)C2=O)cc1` [Example 2, 2,4-bis[1-(4-methoxyphenyl)meth-(Z)-ylidene]-7-methylbenzo[b]-1,4-dioxepin-3-one]: in series [2], the “intense absorption up to” value is “up to 478 nm”.
In series [3], `COc1cc(OC)c(OC)cc1/C=C1\Oc2ccc(C)cc2O/C(=C\c2cc(OC)c(OC)cc2OC)C1=O` [Example 1, 7-methyl-2,4-bis[1-(2,4,5-trimethoxyphenyl)meth-(Z)-ylidene]benzo[b]-1,4-dioxepin-3-one] gave an Emission of 412 nm. The “Solubility in X-Tend 226” value in series [4] is given as 2.2%. Further, in series [1], the “thermal stability (in words)” value is listed as “excellent” and the “Temperature at which 98% of the weight was still present” value turned out to be 281 °C. Also, in series [2], the λmax is reported as 437 nm, the E1 % value was 505, the Half-value width entry is on record as “approx. 102 nm” and the “intense absorption up to” value is “up to 539 nm”. Besides, the “spectral range covered compared with curcumin and beta-carotene” value in series [2] is “significantly greater spectral range”.
